Experimental data taken from the NIST ThermoML archive (doi:10.1021/je049706p).
± gives the expanded uncertainty stated by the source.

Test: refractive index (Na D-line) (dimensionless)
Details: 293.1 K; 101.33 kPa; Liquid; Standard Abbe refractometry

Compound `CN1CCCC1=O` [N-methylpyrrolidone] has a refractive index of 1.4686 ± 0.0012.
